The subject of series [1] is C3H/HEJ mice. The series is described as follows: Toxicity of aerosolized porphyrins in mice (group bodyweight). It counts as in vivo. The text has this:
Toxicity of the three porphyrins were studied. Porphyrins were delivered via aerosols into mice. It is considered that beryllium-lung burdened mice will provide in vivo data for the removal of beryllium via urinary secretion tests.
Aqueous solutions of the three porphyrins were aerosolized using a constant-flow Pulmo-Mist pump and nebulizer syste and delivered into cages each housing five female 20+ week old C3H/HEJ mice over a period of twenty days. The group bodyweights of these mice were measured each morning prior to aerosol treatment. Regimens included multiple, constant dosing and dose escalation. Mice in cages receiving multiple doses of 9 mg of one of the select porphyrins began to lose weight (up to 14%) by the third day of treatment. […] Treatments with two porphyrins generally reflected lower and delayed evidence of toxicity compared to that observed with one of the select porphyrins (phthalocyanine tetrasulfonate porphyrin, meso-tetra (4-carboxyphenyl) porphyrin, meso-tetra (4-sulfonatophenyl) porphyrin). Younger mice (about 6 weeks old) were generally more tolerant than older mice, but the rank order of porphyrin toxicity was the same.

Series [2] addresses T1, Beryllium bound to oxyhemoglobin (Be—Hb) (Homo sapiens, UniProt P68871+P69905).
T1 construct: purchased Sigma H7379
Nature of the series: Chelation of hemoglobin bound beryllium by porphyrins (removal of beryllium from Be-Hb). It counts as binding. The settings on record: for effect on amount of beryllium associated with hemoglobin (in words): incubation of Be-Hb with porphyrin. The protocol: Beryllium bound to oxyhemoglobin (Be—Hb) was prepared as described in Section 2.1 (above). To determine if the test porphyrins were able to remove beryllium from hemoglobin, porphyrins were added to the hemoglobin solution at 2.5 times the Be concentration of the solution. One hundred μl of 7.1 mM porphyrin solution (or 100 μl of HBS for controls) was added to 1 ml of […]. This mixture was incubated at 37° C. for 30 minutes. Following incubation, the entire mixture was loaded into a Centricon YM-30 molecular weight cutoff filter. This filter retains molecules with a molecular weight >30,000 (i.e., hemoglobin) and allows smaller molecules (i.e. porphyrin, free beryllium) to pass through. The samples were centrifuged to concentrate hemoglobin on the filter and then washed with 500 μl of HBS to remove any porphyrin or beryllium trapped in the hemoglobin concentrate. Hemoglobin concentrates were collected in 100 μl of HBS according to the manufacturer's instructions. The concentrates were then diluted to 3 mls with HBS. Hemoglobin concentration of each sample was determined spectrophotometrically with Drabkin's reagent. Beryllium content of each sample was determined by ICP-AAS.

Series [3] is described as follows: Binding of beryllium to porphyrins by proton NMR in deuterium oxide. As to conditions: no buffer. Here is the method:
Initial experiments utilized HBS prepared in deuterium oxide (deuterated water, D2O) to eliminate the protons of water. This was not successful as the HEPES in the buffer also contains protons that interfered with the analysis. Therefore, experiments were conducted with porphyrins 1-5 dissolved in deuterium oxide. Porphyrins were analyzed in the presence and absence of beryllium-Spectra were collected on a 500 MHz JEOL.

For series [4], the target named is T2, Human hemoglobin (Homo sapiens, UniProt P68871+P69905).
T2 construct: purchased Sigma H7379
T2 sequence (P69905 2-142 limits assumed): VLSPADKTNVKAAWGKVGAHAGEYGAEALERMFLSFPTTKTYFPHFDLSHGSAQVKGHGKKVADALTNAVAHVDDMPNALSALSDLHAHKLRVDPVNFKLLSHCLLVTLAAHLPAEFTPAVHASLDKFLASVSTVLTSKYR
T2 sequence (P68871 2-147 limits assumed): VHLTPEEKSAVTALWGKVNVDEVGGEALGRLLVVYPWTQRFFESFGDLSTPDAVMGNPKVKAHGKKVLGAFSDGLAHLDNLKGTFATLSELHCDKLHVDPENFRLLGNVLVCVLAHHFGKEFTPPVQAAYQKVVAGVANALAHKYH
Nature of the series: Binding of beryllium to various hemoglobins (Sephadex G-25 separation, ICP-AAS). The settings on record: incubation at 37° C. for 30 minutes; Be:Hb 2.5:1. The protocol: These experiments used beryllium nitrate (Aldrich 46,503-8) as a soluble form of beryllium. […] This precipitate was probably an insoluble beryllium phosphate complex. Due to the insolubility of beryllium in PBS at necessary concentrations, experiments were carried out in N-2hydroxyethylpiperazine-N′-2-ethane-sulfonic acid (HEPES)-buffered saline (HBS). HEPES is commonly used as a buffer for biochemical experiments in the physiological pH range. HBS contained 10 mM HEPES, sodium chloride, and potassium chloride, pH 7.4.
Human hemoglobin (Sigma H7379) was dissolved in HBS at a concentration of 40 mg/ml. This hemoglobin was >95% methemoglobin. To reduce the iron and form oxyhemoglobin, 5 mM sodium hydrosulfite was added to the hemoglobin solution. This solution was then dialyzed overnight at 4° C. against HBS to remove residual sodium hydrosulfite. To form carboxyhemoglobin, oxyhemoglobin was gently bubbled with carbon monoxide for 5 minutes. Identity of hemoglobins was confirmed by spectrophotometry prior to experimentation.
Beryllium nitrate was added to a solution of hemoglobin at a molar ratio of 2.5:1 (B e: Hb). This mixture was incubated at 37° C. for 30 minutes. During incubation with beryllium some precipitation of hemoglobin occurred. Precipitate was removed from the samples by centrifugation. Samples of hemoglobin with no beryllium were used as negative controls. Experiments were performed on oxy-, met-, and carboxyhemoglobin.
To isolate beryllium bound to hemoglobin (Be—Hb) from free beryllium, samples were passed through a 1 cm×25 cm Sephadex G-25 column equilibrated in HBS. One milliliter fractions of column eluate were collected. These fractions were diluted to 5 ml with distilled water. The hemoglobin content of each fraction was determined by use of Drabkin's reagent. Beryllium content of each fraction was determined by inductively coupled plasma atomic absorption spectrophotometry (ICP-AAS). A flow chart of this procedure is presented as FIG. 1.

“Also recorded” adds a separate entry of the source. Like-named read-outs stand apart in the source and are kept apart here. Marks after values point to notes of the source that are not given here.

T1 sequence (P69905 2-142 limits assumed): as the sequence (P69905 2-142 limits assumed) above
T1 sequence (P68871 2-147 limits assumed): as the sequence (P68871 2-147 limits assumed) above

`O=C(O)c1ccc(-c2c3nc(c(-c4ccc(C(=O)O)cc4)c4ccc([nH]4)c(-c4ccc(C(=O)O)cc4)c4nc(c(-c5ccc(C(=O)O)cc5)c5ccc2[nH]5)C=C4)C=C3)cc1` [porphyrin 2, meso-tetra (4-carboxyphenyl) porphyrin]: the “toxicity / safety of aerosol delivery to lungs (in words)” value (“toxicity / safety of aerosol delivery” below) in series [1] was “maybe safely delivered as aerosols; also recorded: non-toxic”. The “effect on amount of beryllium associated with hemoglobin (in words)” value (“effect on amount of beryllium associated” for short) in series [2] was “reduced the amount of beryllium associated with hemoglobin”.

Take hemin [porphyrin 1]: in series [2], the “effect on amount of beryllium associated” value is “reduced the amount of beryllium associated with hemoglobin”.

For the compound “phthalocyanine tetrasulfonate [porphyrin 3]”, the “toxicity / safety of aerosol delivery” value in series [1] is listed as “maybe safely delivered as aerosols”. In addition, the “effect on amount of beryllium associated” value in series [2] is listed as “reduced the amount of beryllium associated with hemoglobin”. Besides, the “reduction of the amount of beryllium associated with hemoglobin” value in series [2] (molar excess of porphyrin, 30 minutes at 37° C.) was determined as 59%. In series [3], the “change in proton NMR spectra on addition of beryllium” value was “suggest a reaction of beryllium with the porphyrin”.

Take `O=S(=O)(O)c1ccc(-c2c3nc(c(-c4ccc(S(=O)(=O)O)cc4)c4ccc([nH]4)c(-c4ccc(S(=O)(=O)O)cc4)c4nc(c(-c5ccc(S(=O)(=O)O)cc5)c5ccc2[nH]5)C=C4)C=C3)cc1` [porphyrin 4, meso-tetra (4-sulfonatophenyl) porphyrin]: the “toxicity / safety of aerosol delivery” value is “maybe safely delivered as aerosols” in series [1] and “non-toxic” in series [1] (listed as meso-tetra-(4-sulfonate phenyl)). For the same compound, in series [2], the “effect on amount of beryllium associated” value is recorded as “reduced the amount of beryllium associated with hemoglobin”.

As for “Carboxyhemoglobin: oxyhemoglobin gently bubbled with carbon monoxide for 5 minutes”, in series [4], the “Molar ratio (moles Be:moles Hb) Mean” value was 1.88 moles Be:moles Hb and the “μg beryllium/mg hemoglobin Mean” value is 0.351 μg beryllium/mg hemoglobin.

With “Methemoglobin: Human hemoglobin (Sigma H7379), >95% methemoglobin, iron in the +III oxidation state”, in series [4], the “Molar ratio (moles Be:moles Hb) Mean” value is on record as 0.13a moles Be:moles Hb and the “μg beryllium/mg hemoglobin Mean” value is listed as 0.016^a μg beryllium/mg hemoglobin.

Take “Oxyhemoglobin: Human hemoglobin reduced with sodium hydrosulfite, iron in the +II oxidation state”: in series [4], the “Molar ratio (moles Be:moles Hb) Mean” value is listed as 2.25 moles Be:moles Hb and the “μg beryllium/mg hemoglobin Mean” value is recorded as 0.438 μg beryllium/mg hemoglobin.

Take “magnesium phthalocyanine tetrasulfonate tetra sodium salt porphyrin [porphyrin 5]”: the “effect on amount of beryllium associated” value in series [2] was “reduced the amount of beryllium associated with hemoglobin”. For the same compound, the “change in proton NMR spectra on addition of beryllium” value in series [3] is given as “suggest a reaction of beryllium with the porphyrin”.

(Values after patent US6660762B2, “Methods and compositions to treat lung diseases” (priority 2001, dated 2003).)
